The source of these data is US20230172923A1, “METHODS OF TREATING CYTOKINE-RELATED ADVERSE EVENTS” (BRISTOL-MYERS SQUIBB COMPANY, priority 2020, published 2023).

Holding throughout (type): cell-based, human
The test system of experiment [1] is IL-6. Description: LPS-induced IL-6 secretion from monocytes with nigericin (MSD). The note with it: overnight 1 nM, 10 nM or 100 nM Compound 1; LPS 4 hours, then 5 µg/ml nigericin 1 hour. As for the experimental part: Monocytes from healthy volunteers were seeded at a concentration of 1×10^6 cells/ml and treated with the indicated concentration of Compound 1 overnight. The next morning, the monocytes were incubated with the indicated concentration of LPS for 4 hours, and then stimulation with 5 ug/ml of nigericin for 1 hour, before IL-6 levels in the supernatant were assessed using an MSD assay.
Monocytes from two healthy human donors were isolated as in Example 1. Here isolated monocytes (1×10^6 cells/ml) were treated with various concentrations of Compound 1 (1 nM, 10 nM, or 100 nM), or control DMSO (0.001%), overnight (~17 hours) before stimulation with various concentrations of LPS.
After 4 hours, 5 µg/ml of nigericin was added to activate the inflammasome for 1 hour, supernatants were harvested, and MSD analysis was performed to quantify secreted IL-6.

Experiment [2] concerns IL-2. Description: CC-93269-induced IL-2 secretion, co-culture of PBMCs and K562-BCMA cells (MSD). The note with it: Compound 1 pre-treatment; 24 hours. The procedure:
Co-cultures of PBMCs, target K562-BCMA cells and CC-93269 were prepared as for FIG. 9. At 6-, 24- and 48-hours post-incubation, the cell culture media was collected and levels of TNF-alpha (FIG. 12A) and IL-2 (FIG. 12B) in the supernatant were assessed using an MSD assay. ULOQ = Upper limit of quantification.
Fresh PBMCs were isolated from the blood (buffy coat) of healthy human volunteers by Ficoll based cell separation. The percentage of CD3+ T-cells (total) in the PBMCs was quantified by flow cytometry. The isolated PBMCs were seeded in 12-well plates at a concentration of 1.5×10^6 cells/ml and treated with 1 nM Compound 1 (CC-92480), 1000 nM lenalidomide, 100 nM pomalidomide, 10 nM iberdomide, or control DMSO overnight (~17 hours).
After overnight incubation, target K562-BCMA cells (overexpress surface BCMA at a very high level) or control K562-MCB cells (no BCMA expression) were added to the wells at a ratio of 5:1, T-cells to target cells. K562-BCMA and K562-MCB are an isogenic pair that are derived from a chronic myelogenous leukemia (CML,) cell line. CC-93269 was added to the co-culture at various concentrations and incubated. CC-93269 is an anti-BCMA anti-CD3 bispecific T cell-engaging antibody and is also referred to herein as 42-TCBcv.

In experiment [3] the test system is IL1-beta. The experiment is described as follows: CC-93269-induced IL1-beta secretion, co-culture of PBMCs and K562-BCMA cells (MSD). As for the experimental part: Co-cultures of PBMCs, target K562-BCMA cells and CC-93269 were prepared as for FIG. 9. At 6-, 24- and 48-hours post-incubation, the cell culture media was collected and levels of IL1-beta in the supernatant were assessed using an MSD assay (FIG. 13A). […] The circles indicate independent donors and the bars indicate median values; not all donors are shown because a data cut-off for the bottom ~10% of IL1-beta concentrations, below 100 pg/ml, was used to eliminate small changes that could skew the result and to increase confidence in results.
Fresh PBMCs were isolated from the blood (buffy coat) of healthy human volunteers by Ficoll based cell separation. The percentage of CD3+ T-cells (total) in the PBMCs was quantified by flow cytometry. The isolated PBMCs were seeded in 12 well plates at a concentration of 1.5×10^6 cells/ml and treated with 1 nM Compound 1 (CC-92480) or control DMSO overnight (~17 hours). After overnight incubation, target K562-BCMA cells were added to the wells at a ratio of 5:1, T-cells to target cells, followed by incubation with CC-93269 at various concentrations. […]
At 6, 24 and 48 hours post-incubation, the cell culture media was collected from all samples, spun down at 300 g for 5 minutes to remove cells and the supernatant was subjected to cytokine analysis to quantify secreted levels of IL1-beta using an MSD assay.

“Also recorded” adds a separate entry of the source.

Regarding `N#Cc1ccc(N2CCN(Cc3ccc(COc4cccc5c4CN(C4CCC(=O)NC4=O)C5=O)cc3)CC2)c(F)c1` (stereo not drawn) [Compound 1, 4-(4-(4-(((2-(2,6-dioxopiperidin-3-yl)-1-oxoisoindolin-4-yl)oxy)methyl)benzyl)piperazin-l-yl)-3-fluorobenzonitrile], the “LPS-induced IL-6 secretion from monocytes” value in experiment [1] is “diminished”. Besides, the “CC-93269-induced IL-2 secretion from PBMCs with K562 target cells” value in experiment [2] is recorded as “potentiates”. Moreover, the “secretion of IL1-beta associated with CC-93269 activity, PBMCs + K562-BCMA” value in experiment [3] (1 nM Compound 1 pre-treatment overnight) was “diminished/attenuated; also recorded: suppressed”. The “median reduction in IL1-beta levels relative to DMSO control” value in experiment [3] (Compound 1 pre-treatment, 10 ng/ml CC-93269, 24 hours, PBMCs from 15 healthy donors) is “ten-fold”.
